Literature values as cited in patent US20130012613A1, “METHOD FOR SYNTHESIZING CALIXARENE AND/OR CYCLODEXTRIN COPOLYMERS, TERPOLYMERS AND TETRAPOLYMERS, AND USES THEREOF” (Drug Research Technology Transfer LLC, priority 2009, published 2013).
Converted amounts (≈) assume the structure as drawn.

conditions: native cyclodextrins

**Q.** With `OC[C@H]1O[C@@H]2O[C@H]3[C@H](O)[C@@H](O)[C@@H](O[C@H]4[C@H](O)[C@@H](O)[C@@H](O[C@H]5[C@H](O)[C@@H](O)[C@@H](O[C@H]6[C@H](O)[C@@H](O)[C@@H](O[C@H]7[C@H](O)[C@@H](O)[C@@H](O[C@H]1[C@H](O)[C@H]2O)O[C@@H]7CO)O[C@@H]6CO)O[C@@H]5CO)O[C@@H]4CO)O[C@@H]3CO` [alpha-CD, alpha-cyclodextrin] as the compound, how does the solubility in water read?
**A.** The solubility in water was 127 mg/mL (≈ 131 mM).

**Q.** With `OC[C@H]1O[C@@H]2O[C@H]3[C@H](O)[C@@H](O)[C@@H](O[C@H]4[C@H](O)[C@@H](O)[C@@H](O[C@H]5[C@H](O)[C@@H](O)[C@@H](O[C@H]6[C@H](O)[C@@H](O)[C@@H](O[C@H]7[C@H](O)[C@@H](O)[C@@H](O[C@H]8[C@H](O)[C@@H](O)[C@@H](O[C@H]9[C@H](O)[C@@H](O)[C@@H](O[C@H]1[C@H](O)[C@H]2O)O[C@@H]9CO)O[C@@H]8CO)O[C@@H]7CO)O[C@@H]6CO)O[C@@H]5CO)O[C@@H]4CO)O[C@@H]3CO` [gamma-CD, gamma-cyclodextrin] as the compound, how does the solubility in water read?
**A.** The solubility in water was 236 mg/mL (≈ 182 mM).

**Q.** With `OC[C@H]1O[C@@H]2O[C@H]3[C@H](O)[C@@H](O)[C@@H](O[C@H]4[C@H](O)[C@@H](O)[C@@H](O[C@H]5[C@H](O)[C@@H](O)[C@@H](O[C@H]6[C@H](O)[C@@H](O)[C@@H](O[C@H]7[C@H](O)[C@@H](O)[C@@H](O[C@H]8[C@H](O)[C@@H](O)[C@@H](O[C@H]1[C@H](O)[C@H]2O)O[C@@H]8CO)O[C@@H]7CO)O[C@@H]6CO)O[C@@H]5CO)O[C@@H]4CO)O[C@@H]3CO` [beta-CD, beta-cyclodextrin] as the compound, how does the solubility in water read?
**A.** The solubility in water was 18.8 mg/mL (≈ 16.6 mM).
